System: Influenza type A (strain A/PR/8/34, ATCC VR-95)
Experiment: Influenza antiviral assay: inhibition of virus-induced cytopathic effects (CPE) in MDCK cells, XTT dye reduction
Format: cell-based
Settings: Influenza A (H1N1), strain A/PR/8/34, MDCK cells, CPE inhibition at 4 days

First: CC(CCN1CN(C23c4ccccc4CC2Cc2ccccc23)n2ccc(=O)c(O)c2C1=O)c1ccccc1 (centres unmarked) [Compound A33]
Second: CN1CN(C23c4ccccc4CC2Cc2c3ccc(F)c2Cl)n2ccc(=O)c(O)c2C1=O (centres unmarked) [Compound A90]
The EC50 of the first is higher: 375 to 500 nM for the first, 125 to 250 nM for the second. The second is the more potent here.

Same assay, conditions: Influenza A virus, H1N1 / PR/8, MDCK, 96 h, strain A/PR/8/34, MDCK cells, CPE inhibition at 4 days

Compared with `O=C1c2c(O)c(=O)ccn2N(C23c4ccccc4CC2Cc2cc(F)c(F)cc23)CN1Cc1cccc(F)c1` (centres unmarked) [Compound A24, 1-(2,3-difluoro-9a,10-dihydroindeno[1,2-a]inden-4b(9H)-yl)-3-(3-fluorobenzyl)-5-hydroxy-2,3-dihydro-1H-pyrido[2,1-f][1,2,4]triazine-4,6-dione], `O=C1c2c(O)c(=O)ccn2N(C23c4ccccc4CC2Cc2cc(F)c(F)cc23)CN1CCc1cccc(F)c1` (centres unmarked) [Compound A28, 1-(2,3-difluoro-9a,10-dihydroindeno[1,2-a]inden-4b(9H)-yl)-3-(3-fluorophenethyl)-5-hydroxy-2,3-dihydro-1H-pyrido[2,1-f][1,2,4]triazine-4,6-dione] is lower in EC50: greater than 500 nM for the first, 125 to 250 nM for the second. The second is the more potent here.

First: O=C1c2c(O)c(=O)ccn2N(C23c4ccccc4CC2Cc2c3ccc(F)c2F)CN1CCc1ccccc1 (centres unmarked) [Compound A25, 1-(1,2-difluoro-9a,10-dihydroindeno[1,2-a]inden-4b(9H)-yl)-5-hydroxy-3-phenethyl-2,3-dihydro-1H-pyrido[2,1-f][1,2,4]triazine-4,6-dione]
Second: O=C1c2c(O)c(=O)ccn2N(C23c4ccccc4CC2Cc2c(F)cccc23)CN1CCc1ccccc1 (centres unmarked) [Compound A87]
The EC50 of the first is lower: less than 125 nM for the first, 125 to 250 nM for the second. The first is the more potent here.

Compared with `O=C1c2c(O)c(=O)ccn2N(C23c4ccccc4CC2Cc2c3ccc(F)c2F)CN1Cc1cccc(F)c1` (centres unmarked) [Compound A26, 1-(1,2-difluoro-9a,10-dihydroindeno[1,2-a]inden-4b(9H)-yl)-3-(3-fluorobenzyl)-5-hydroxy-2,3-dihydro-1H-pyrido[2,1-f][1,2,4]triazine-4,6-dione], `O=C1c2c(O)c(=O)ccn2N(C23c4ccccc4CC2Cc2c3ccc(F)c2F)CN1CCc1cccc(F)c1` (centres unmarked) [Compound A27, 1-(1,2-difluoro-9a,10-dihydroindeno[1,2-a]inden-4b(9H)-yl)-3-(3-fluorophenethyl)-5-hydroxy-2,3-dihydro-1H-pyrido[2,1-f][1,2,4]triazine-4,6-dione] is lower in EC50: 375 to 500 nM for the first, 125 to 250 nM for the second. The second is the more potent here.

Compared with `O=C1c2c(O)c(=O)ccn2N(C23c4ccccc4CC2Cc2cc(F)c(F)cc23)CN1CCc1ccc(F)cc1` (centres unmarked) [Compound A29, 1-(2,3-difluoro-9a,10-dihydroindeno[1,2-a]inden-4b(9H)-yl)-3-(4-fluorophenethyl)-5-hydroxy-2,3-dihydro-1H-pyrido[2,1-f][1,2,4]triazine-4,6-dione], `CCN1CN(C23c4ccccc4CC2Cc2ccc(F)cc23)n2ccc(=O)c(O)c2C1=O` (centres unmarked) [Compound A52] is lower in EC50: 125 to 250 nM for the first, less than 125 nM for the second. The second is the more potent here.

First: CN1CN(C23C(=Cc4ccccc42)Cc2ccccc23)n2ccc(=O)c(O)c2C1=O (centres unmarked) [Compound A30, 5-hydroxy-1-(indeno[1,2-a]inden-4b(9H)-yl)-3-methyl-2,3-dihydro-1H-pyrido[2,1-f][1,2,4]triazine-4,6-dione]
Second: COC12Cc3ccccc3C1(N1CN(C)C(=O)c3c(O)c(=O)ccn31)c1ccccc1C2 (centres unmarked) [Compound A62]
The EC50 of the first is lower: less than 125 nM for the first, 125 to 250 nM for the second.

`O=C1c2c(O)c(=O)ccn2N(C23c4ccccc4CC2Cc2ccccc23)CN1Cc1cccc(Cl)c1F` (centres unmarked) [Compound A31, 3-(3-chloro-2-fluorobenzyl)-1-(9a,10-dihydroindeno[1,2-a]inden-4b(9H)-yl)-5-hydroxy-2,3-dihydro-1H-pyrido[2,1-f][1,2,4]triazine-4,6-dione] and `CC(CCN1CN(C23c4ccccc4CC2Cc2ccccc23)n2ccc(=O)c(O)c2C1=O)c1ccccc1` (centres unmarked) [Compound A32, 1-(9a,10-dihydroindeno[1,2-a]inden-4b(9H)-yl)-5-hydroxy-3-(3-phenylbutyl)-2,3-dihydro-1H-pyrido[2,1-f][1,2,4]triazine-4,6-dione] cannot be ordered by EC50: greater than 500 nM for the first, greater than 500 nM for the second.

Compared with `CCN1CN(C23c4cccc(F)c4CC2Cc2c(F)cccc23)n2ccc(=O)c(O)c2C1=O` (centres unmarked) [Compound A34], `CCN1CN(C23c4cccc(C)c4CC2Cc2c(F)cccc23)n2ccc(=O)c(O)c2C1=O` (centres unmarked) [Compound A66] is higher in EC50: less than 125 nM for the first, 125 to 250 nM for the second. The first is the more potent here.

`CN1CN(C23c4ccccc4CC2Cc2c3ccc(F)c2Cl)n2ccc(=O)c(O)c2C1=O` (centres unmarked) [Compound A46, 1-(1-Chloro-2-fluoro-9a,10-dihydroindeno[1,2-a]inden-4b(9H)-yl)-5-hydroxy-3-methyl-2,3-dihydro-1H-pyrido[2,1-f][1,2,4]triazine-4,6-dione] and `Cc1c(F)ccc2c1CC1Cc3ccccc3C21N1CN(C)C(=O)c2c(O)c(=O)ccn21` (centres unmarked) [Compound A78] cannot be ordered by EC50: less than 125 nM for the first, less than 125 nM for the second.

`CCN1CN(C23c4ccccc4CC2Cc2c3ccc(F)c2Cl)n2ccc(=O)c(O)c2C1=O` (centres unmarked) [Compound A47] and `CCN1CN(C23c4ccccc4CC2Cc2c3ccc(F)c2C)n2ccc(=O)c(O)c2C1=O` (centres unmarked) [Compound A77] cannot be ordered by EC50: less than 125 nM for the first, less than 125 nM for the second.

`CCOC12Cc3ccccc3C1(N1CN(CC)C(=O)c3c(O)c(=O)ccn31)c1ccccc1C2` (centres unmarked) [Compound A48, 1-(9a-Ethoxy-9a,10-dihydroindeno[1,2-a]inden-4b(9H)-yl)-3-ethyl-5-hydroxy-2,3-dihydro-1H-pyrido[2,1-f][1,2,4]triazine-4,6-dione] and `CCOC12Cc3ccccc3C1(N1CN(C)C(=O)c3c(O)c(=O)ccn31)c1ccccc1C2` (centres unmarked) [Compound A57] cannot be ordered by EC50: less than 125 nM for the first, less than 125 nM for the second.

`COCCN1CN(C23c4cccc(F)c4CC2Cc2c(F)cccc23)n2ccc(=O)c(O)c2C1=O` (centres unmarked) [Compound A49] and `O=C1c2c(O)c(=O)ccn2N(C23c4cccc(F)c4CC2Cc2c(F)cccc23)CN1CCF` (centres unmarked) [Compound A58] cannot be ordered by EC50: less than 125 nM for the first, less than 125 nM for the second.

Compared with `CC(C)N1CN(C23c4ccccc4CC2(C)Cc2ccccc23)n2ccc(=O)c(O)c2C1=O` (centres unmarked) [Compound A50, 5-hydroxy-3-isopropyl-1-(9a-methyl-9a,10-dihydroindeno[1,2-a]inden-4b(9H)-yl)-2,3-dihydro-1H-pyrido[2,1-f] [1,2,4] triazine-4,6-dione], `CN1CN(C23c4ccccc4CC2(C(F)F)Cc2ccccc23)n2ccc(=O)c(O)c2C1=O` (centres unmarked) [Compound A63] is higher in EC50: less than 125 nM for the first, 125 to 250 nM for the second.

`CCN1CN(C23c4cccc(F)c4CC2(C)Cc2c(F)cccc23)n2ccc(=O)c(O)c2C1=O` (centres unmarked) [Compound A51] and `CN1CN(C23c4cccc(F)c4CC2(C)Cc2c(F)cccc23)n2ccc(=O)c(O)c2C1=O` (centres unmarked) [Compound A54] cannot be ordered by EC50: less than 125 nM for the first, less than 125 nM for the second.

Compared with `CN1CN(C23c4ccccc4CC2Cc2ccc(F)cc23)n2ccc(=O)c(O)c2C1=O` (centres unmarked) [Compound A53], `Cc1ccc2c(c1F)CC1Cc3ccccc3C21N1CN(C)C(=O)c2c(O)c(=O)ccn21` (centres unmarked) [Compound A85] is higher in EC50: less than 125 nM for the first, 125 to 250 nM for the second.

`CCN1CN(C23c4ccccc4CC2Cc2c(Cl)cccc23)n2ccc(=O)c(O)c2C1=O` (centres unmarked) [Compound A55] and `CCN1CN(C23c4ccccc4CC2Cc2c(C)cccc23)n2ccc(=O)c(O)c2C1=O` (centres unmarked) [Compound A82] cannot be ordered by EC50: less than 125 nM for the first, less than 125 nM for the second.

First: CCN1CN(C23c4ccccc4CC2(CC)Cc2c3ccc(F)c2F)n2ccc(=O)c(O)c2C1=O (centres unmarked) [Compound A56]
Second: O=C1c2c(O)c(=O)ccn2N(C23c4ccccc4CC2Cc2c3ccc(F)c2F)CN1CCF (centres unmarked) [Compound A74]
The EC50 of the first is lower: less than 125 nM for the first, 125 to 250 nM for the second.

`CN1C(=O)c2c(O)c(=O)ccn2N(C23c4cccc(F)c4CC2Cc2c(F)cccc23)C1CO` (centres unmarked) [Compound A59] and `CC1N(C)C(=O)c2c(O)c(=O)ccn2N1C12c3cccc(F)c3CC1Cc1c(F)cccc12` (centres unmarked) [Compound A73] cannot be ordered by EC50: less than 125 nM for the first, less than 125 nM for the second.

`CC1N(C)C(=O)c2c(O)c(=O)ccn2N1C12c3ccccc3CC1Cc1c(F)cccc12` (centres unmarked) [Compound A60] and `CC1N(C)C(=O)c2c(O)c(=O)ccn2N1C12c3ccccc3CC1Cc1c2ccc(F)c1F` (centres unmarked) [Compound A64] cannot be ordered by EC50: less than 125 nM for the first, less than 125 nM for the second.

First: O=C1c2c(O)c(=O)ccn2N(C23c4ccccc4CC2Cc2c3ccc(F)c2F)CN1C1CC1 (centres unmarked) [Compound A61]
Second: O=C1c2c(O)c(=O)ccn2N(C23c4ccccc4CC2Cc2c(F)cccc23)CN1C1CC1 (centres unmarked) [Compound A65]
The EC50 of the first is lower: less than 125 nM for the first, 125 to 250 nM for the second. The first is the more potent here.

`Cc1cccc2c1CC1Cc3c(F)cccc3C21N1CN(C)C(=O)c2c(O)c(=O)ccn21` (centres unmarked) [Compound A67] and `O=C1c2c(O)c(=O)ccn2N(C23c4cccc(F)c4CC2Cc2c(F)cccc23)CN1CCCF` (centres unmarked) [Compound A72] cannot be ordered by EC50: less than 125 nM for the first, less than 125 nM for the second.

`O=C1c2c(O)c(=O)ccn2N(C23c4ccccc4CC2Cc2c(F)cccc23)CN1CCF` (centres unmarked) [Compound A68] and `O=C1c2c(O)c(=O)ccn2N(C23c4ccccc4CC2Cc2c(F)cccc23)CN1CCCF` (centres unmarked) [Compound A79] cannot be ordered by EC50: less than 125 nM for the first, less than 125 nM for the second.

`COCCN1CN(C23c4ccccc4CC2Cc2c(F)cccc23)n2ccc(=O)c(O)c2C1=O` (centres unmarked) [Compound A69] and `COCCN1CN(C23c4ccccc4CC2Cc2c3ccc(F)c2F)n2ccc(=O)c(O)c2C1=O` (centres unmarked) [Compound A70] cannot be ordered by EC50: less than 125 nM for the first, less than 125 nM for the second.

`O=C1c2c(O)c(=O)ccn2N(C23c4cccc(F)c4CC2Cc2c(F)cccc23)CN1CC(F)F` (centres unmarked) [Compound A71] and `O=C1c2c(O)c(=O)ccn2N(C23c4ccccc4CC2Cc2c(F)cccc23)CN1CC(F)F` (centres unmarked) [Compound A83] cannot be ordered by EC50: less than 125 nM for the first, less than 125 nM for the second.

Compared with `O=C1c2c(O)c(=O)ccn2N(C23c4ccccc4CC2Cc2c(F)cccc23)CN1CC1CCOCC1` (centres unmarked) [Compound A75], `O=C1c2c(O)c(=O)ccn2N(C23c4cccc(F)c4CC2Cc2c(F)cccc23)CN1CC1CCOCC1` (centres unmarked) [Compound A81] is higher in EC50: less than 125 nM for the first, 125 to 250 nM for the second. The first is the more potent here.

Compared with `O=C1c2c(O)c(=O)ccn2N(C23c4cccc(F)c4CC2Cc2c(F)cccc23)CN1CC1CC1` (centres unmarked) [Compound A76], `O=C1c2c(O)c(=O)ccn2N(C23c4cccc(F)c4CC2Cc2c(F)cccc23)CN1CCc1ccccc1` (centres unmarked) [Compound A86] is higher in EC50: less than 125 nM for the first, 125 to 250 nM for the second. The first is the more potent here.

`O=C1c2c(O)c(=O)ccn2N(C23c4ccccc4CC2Cc2c3ccc(F)c2F)CN1CCCF` (centres unmarked) [Compound A80] and `O=C1c2c(O)c(=O)ccn2N(C23c4ccccc4CC2Cc2c3ccc(F)c2F)CN1CC(F)F` (centres unmarked) [Compound A84] cannot be ordered by EC50: less than 125 nM for the first, less than 125 nM for the second.

First: CC(C)N1CN(C23c4cccc(F)c4CC2(C)Cc2c(F)cccc23)n2ccc(=O)c(O)c2C1=O (centres unmarked) [Compound A89]
Second: CC(CCN1CN(C23c4ccccc4CC2Cc2c3ccc(F)c2F)n2ccc(=O)c(O)c2C1=O)c1ccccc1 (centres unmarked) [Compound A91]
The EC50 of the first is lower: 125 to 250 nM for the first, greater than 500 nM for the second. The first is the more potent here.

Reference: patent publication US12037333B2, “Pyridopyrazine and pyridotriazine inhibitors of influenza virus replication” (priority 2018, dated 2024)
